Molecular target: T1, GFRα1-RET (Homo sapiens, UniProt P56159)
T1 construct: expressed in transfected cells; host or cells: MG87 murine fibroblasts, stably transfected
T1 sequence (P56159 25-429 limits assumed): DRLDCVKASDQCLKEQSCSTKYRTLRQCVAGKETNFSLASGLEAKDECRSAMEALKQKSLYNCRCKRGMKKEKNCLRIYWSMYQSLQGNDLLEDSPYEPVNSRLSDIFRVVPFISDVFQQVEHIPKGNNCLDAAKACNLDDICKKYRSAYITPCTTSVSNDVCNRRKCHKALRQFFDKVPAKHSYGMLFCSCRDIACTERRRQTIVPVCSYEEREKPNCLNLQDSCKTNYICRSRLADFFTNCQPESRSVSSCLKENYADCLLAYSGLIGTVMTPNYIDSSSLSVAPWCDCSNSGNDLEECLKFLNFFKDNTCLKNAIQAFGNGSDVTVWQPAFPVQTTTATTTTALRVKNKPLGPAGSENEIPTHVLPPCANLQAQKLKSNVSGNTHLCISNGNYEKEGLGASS
Assay: Elk1 reporter-gene (luciferase) assay in cells expressing GFRα1-RET
Type: cell-based
Settings: MG87 murine fibroblasts stably transfected with PathDetect Elk-1, GFRα1 and RET, 6 concentrations, agonist/activator activity
Protocol: For ECso determination, a dose-response test was performed using 6 concentrations of each tested compound. Dose-response curves were fitted using the sigmoidal dose-response (variable slope) analysis in GraphPad Prism program (Graph Pad Inc) and ECso of agonist/activator activity was calculated. Dose-response experiments were all performed in duplicate, two times independently.

## CCCN(C)S(=O)(=O)c1ccc(OC)c(N2[C@@H]3CC[C@H]2CN(C(=O)c2ccc(F)cc2Cl)C3)c1 [compound 003]
  EC50: 1000 to 10000 nM

## COc1ccc(S(=O)(=O)N2CCCC2)cc1N1[C@@H]2CC[C@H]1CN(C(=O)c1ccc(F)cc1Cl)C2 [compound 004, (2-chloro-4-fluoro-phenyl)-[(1S,5R)-8-(2-methoxy-5-pyrrolidin-1-ylsulfonyl-phenyl)-3,8-diazabicyclo[3.2.1]octan-3-yl]methanone]
  EC50: 1000 to 10000 nM

## COc1ccc(S(=O)(=O)N(C)CC2CC2)cc1N1[C@@H]2CC[C@H]1CN(C(=O)c1ccc(F)cc1Cl)C2 [compound 005, 3-[(1S,5R)-3-(2-chloro-4-fluoro-benzoyl)-3,8-diazabicyclo[3.2.1]octan-8-yl]-N-(cyclopropylmethyl)-4-methoxy-N-methyl-benzenesulfonamide]
  EC50: < 1000 nM

## COc1ccc(S(=O)(=O)N2CCC(F)CC2)cc1N1[C@@H]2CC[C@H]1CN(C(=O)c1ccc(F)cc1Cl)C2 [compound 006]
  EC50: 1000 to 10000 nM

## COc1ccc(S(=O)(=O)N2CCC(C(F)(F)F)CC2)cc1N1[C@@H]2CC[C@H]1CN(C(=O)c1ccc(F)cc1Cl)C2 [compound 007, (2-chloro-4-fluoro-phenyl)-[(1S,5R)-8-[2-methoxy-5-[[4-(trifluoromethyl)-1-piperidyl]sulfonyl]phenyl]-3,8-diazabicyclo[3.2.1]octan-3-yl]methanone]
  EC50: < 1000 nM

## COc1ccc(S(=O)(=O)N2CCC(=Cc3ccccc3)CC2)cc1N1[C@@H]2CC[C@H]1CN(C(=O)c1ccc(F)cc1Cl)C2 [compound 008, [(1S,5R)-8-[5-[(4-benzylidene-1-piperidyl)sulfonyl]-2-methoxy-phenyl]-3,8-diazabicyclo[3.2.1]octan-3-yl]-(2-chloro-4-fluoro-phenyl)methanone]
  EC50: < 1000 nM

## COc1ccc(S(=O)(=O)N2CCC(c3ccccc3)CC2)cc1N1[C@@H]2CC[C@H]1CN(C(=O)c1ccc(F)cc1Cl)C2 [compound 009, (2-chloro-4-fluoro-phenyl)-[(1S,5R)-8-[2-methoxy-5-[(4-phenyl-1-piperidyl)sulfonyl]phenyl]-3,8-diazabicyclo[3.2.1]octan-3-yl]methanone]
  EC50: 1000 to 10000 nM

## COc1ccc(S(=O)(=O)N2CCC(CCc3ccccc3)CC2)cc1N1[C@@H]2CC[C@H]1CN(C(=O)c1ccc(F)cc1Cl)C2 [compound 010, (2-chloro-4-fluoro-phenyl)-[(1S,5R)-8-[2-methoxy-5-[[4-(2-phenylethyl)-1-piperidyl]sulfonyl]phenyl]-3,8-diazabicyclo[3.2.1]octan-3-yl]methanone]
  EC50: < 1000 nM

## COc1ccc(S(=O)(=O)N2CCN(c3ccccc3)CC2)cc1N1[C@@H]2CC[C@H]1CN(C(=O)c1ccc(F)cc1Cl)C2 [compound 012, (2-chloro-4-fluoro-phenyl)-[(1S,5R)-8-[2-methoxy-5-(4-phenylpiperazin-1-yl)sulfonyl-phenyl]-3,8-diazabicyclo[3.2.1]octan-3-yl]methanone]
  EC50: < 1000 nM

## COc1ccc(S(=O)(=O)N2CCN(c3ncccn3)CC2)cc1N1[C@@H]2CC[C@H]1CN(C(=O)c1ccc(F)cc1Cl)C2 [compound 013]
  EC50: 1000 to 10000 nM

## COc1ccc(S(=O)(=O)N2CCN(Cc3ccccc3)CC2)cc1N1[C@@H]2CC[C@H]1CN(C(=O)c1ccc(F)cc1Cl)C2 [compound 014]
  EC50: 1000 to 10000 nM

## COc1ccc(S(=O)(=O)N2C[C@H]3CCCC[C@H]3C2)cc1N1[C@@H]2CC[C@H]1CN(C(=O)c1ccc(F)cc1Cl)C2 [compound 015, [(1S,5R)-8-[5-[[(3aS,7aR)-1,3,3a,4,5,6,7,7a-octahydroisoindol-2-yl]sulfonyl]-2-methoxy-phenyl]-3,8-diazabicyclo[3.2.1]octan-3-yl]-(2-chloro-4-fluoro-phenyl)methanone]
  EC50: < 1000 nM

## CCCN(C)S(=O)(=O)c1ccc(OC)c(N2[C@@H]3COC[C@H]2CN(C(=O)c2ccc(F)cc2C(F)(F)F)C3)c1 [compound 023, 3-[(1S,5R)-7-[4-fluoro-2-(trifluoromethyl)benzoyl]-3-oxa-7,9-diazabicyclo[3.3.1]nonan-9-yl]-4-methoxy-N-methyl-N-propyl-benzenesulfonamide]
  EC50: 10000 to 50000 nM

## CCCN(C)S(=O)(=O)c1ccc(OC)c(N2C3CCC2CN(C(=O)c2ccc(F)cc2C(F)(F)F)C3)c1 [compound 024, 3-[3-[4-fluoro-2-(trifluoromethyl)benzoyl]-3,8-diazabicyclo[3.2.1]octan-8-yl]-4-methoxy-N-methyl-N-propyl-benzenesulfonamide]
  EC50: 1000 to 10000 nM

## CCCN(C)S(=O)(=O)c1ccc(F)c(N2[C@@H]3CC[C@H]2CN(C(=O)c2ccc(F)cc2Cl)C3)c1 [compound 026]
  EC50: 1000 to 10000 nM

## CCCN(C)S(=O)(=O)c1ccc(OC(F)(F)F)c(N2[C@@H]3CC[C@H]2CN(C(=O)c2ccc(F)cc2Cl)C3)c1 [compound 027, 3-[(1S,5R)-3-(2-chloro-4-fluoro-benzoyl)-3,8-diazabicyclo[3.2.1]octan-8-yl]-N-methyl-N-propyl-4-(trifluoromethoxy)benzene sulfonamide]
  EC50: 1000 to 10000 nM

## CCCN(C)S(=O)(=O)c1cccc(N2[C@@H]3CC[C@H]2CN(C(=O)c2ccc(F)cc2Cl)C3)c1 [compound 028, 3-[(1S,5R)-3-(2-chloro-4-fluoro-benzoyl)-3,8-diazabicyclo[3.2.1]octan-8-yl]-N-methyl-N-propyl-benzenesulfonamide]
  EC50: 1000 to 10000 nM

## CCCN(C)S(=O)(=O)c1ccc(OCC)c(N2[C@@H]3CC[C@H]2CN(C(=O)c2ccc(F)cc2Cl)C3)c1 [compound 029]
  EC50: 1000 to 10000 nM

## CCCN(C)S(=O)(=O)c1ccc(OC2CCC2)c(N2[C@@H]3CC[C@H]2CN(C(=O)c2ccc(F)cc2Cl)C3)c1 [compound 030, 3-[(1S,5R)-3-(2-chloro-4-fluoro-benzoyl)-3,8-diazabicyclo[3.2.1]octan-8-yl]-4-(cyclobutoxy)-N-methyl-N-propyl-benzenesulfonamide]
  EC50: 1000 to 10000 nM

## CCCN(C)S(=O)(=O)c1ccc(OCOC)c(N2[C@@H]3CC[C@H]2CN(C(=O)c2ccc(F)cc2Cl)C3)c1 [compound 031, 3-[(1S,5R)-3-(2-chloro-4-fluoro-benzoyl)-3,8-diazabicyclo[3.2.1]octan-8-yl]-4-(methoxymethoxy)-N-methyl-N-propyl-benzenesulfonamide]
  EC50: 1000 to 10000 nM

## CCN(CC)S(=O)(=O)c1cnc(Cl)c(N2[C@@H]3CC[C@H]2CN(C(=O)c2ccc(F)cc2Cl)C3)c1 [compound 032, 6-chloro-5-[(1S,5R)-3-(2-chloro-4-fluoro-benzoyl)-3,8-diazabicyclo[3.2.1]octan-8-yl]-N,N-diethyl-pyridine-3-sulfonamide]
  EC50: 1000 to 10000 nM

## CCN(CC)S(=O)(=O)c1cnc(OC)c(N2[C@@H]3CC[C@H]2CN(C(=O)c2ccc(F)cc2Cl)C3)c1 [compound 033, 5-[(1S,5R)-3-(2-chloro-4-fluoro-benzoyl)-3,8-diazabicyclo[3.2.1]octan-8-yl]-N,N-diethyl-6-methoxy-pyridine-3-sulfonamide]
  EC50: 1000 to 10000 nM

## CCN(CC)S(=O)(=O)c1cnc(OCc2ccccc2)c(N2[C@@H]3CC[C@H]2CN(C(=O)c2ccc(F)cc2Cl)C3)c1 [compound 034, 6-benzyloxy-5-[(1S,5R)-3-(2-chloro-4-fluoro-benzoyl)-3,8-diazabicyclo[3.2.1]octan-8-yl]-N,N-diethyl-pyridine-3-sulfonamide]
  EC50: < 1000 nM

## CCN(CC)S(=O)(=O)c1cnc(O)c(N2[C@@H]3CC[C@H]2CN(C(=O)c2ccc(F)cc2Cl)C3)c1 [compound 035]
  EC50: 10000 to 50000 nM

## CCCN(C)S(=O)(=O)c1ccc(O)c(N2[C@@H]3CC[C@H]2CN(C(=O)c2ccc(F)cc2Cl)C3)c1 [compound 036, 3-[(1S,5R)-3-(2-chloro-4-fluoro-benzoyl)-3,8-diazabicyclo[3.2.1]octan-8-yl]-4-hydroxy-N-methyl-N-propyl-benzenesulfonamide]
  EC50: 1000 to 10000 nM

## COc1ccc(S(=O)(=O)N2CCC(c3ccc(F)cc3)CC2)cc1N1[C@@H]2CC[C@H]1CN(C(=O)c1ccc(F)cc1Cl)C2 [compound 039, (2-chloro-4-fluoro-phenyl)-[(1S,5R)-8-[5-[[4-(4-fluorophenyl)-1-piperidyl]sulfonyl]-2-methoxy-phenyl]-3,8-diazabicyclo[3.2.1]octan-3-yl]methanone]
  EC50: < 1000 nM

## COc1ccc(S(=O)(=O)N2CCC(c3cccc(C#N)c3)CC2)cc1N1[C@@H]2CC[C@H]1CN(C(=O)c1ccc(F)cc1Cl)C2 [compound 040, 3-[1-[3-[(1S,5R)-3-(2-chloro-4-fluoro-benzoyl)-3,8-diazabicyclo[3.2.1]octan-8-yl]-4-methoxy-phenyl]sulfonyl-4-piperidyl]benzonitrile]
  EC50: < 1000 nM

## COC(=O)c1cccc(C2CCN(S(=O)(=O)c3ccc(OC)c(N4[C@@H]5CC[C@H]4CN(C(=O)c4ccc(F)cc4Cl)C5)c3)CC2)c1 [compound 041, methyl 3-[1-[3-[(1S,5R)-3-(2-chloro-4-fluoro-benzoyl)-3,8-diazabicyclo[3.2.1]octan-8-yl]-4-methoxy-phenyl]sulfonyl-4-piperidyl]benzoate]
  EC50: < 1000 nM

## COC(=O)c1ccc(C2CCN(S(=O)(=O)c3ccc(OC)c(N4[C@@H]5CC[C@H]4CN(C(=O)c4ccc(F)cc4Cl)C5)c3)CC2)cc1 [compound 042, methyl 4-[1-[3-[(1S,5R)-3-(2-chloro-4-fluoro-benzoyl)-3,8-diazabicyclo[3.2.1]octan-8-yl]-4-methoxy-phenyl]sulfonyl-4-piperidyl]benzoate]
  EC50: < 1000 nM

Source: patent US20260022096A1, “NOVEL SULFONAMIDES AND THEIR USE AS NEUROPROTECTIVE AND/OR NEURORESTORATIVE AGENTS” (GENECODE, priority 2022, published 2026)
